# From PMC6332165, “Study of the Relationships between the Structure, Lipophilicity and Biological Activity of Some Thiazolyl-carbonyl-thiosemicarbazides and Thiazolyl-azoles” (Molecules, 2015)
# Columns and labels:
# phagocytes = test system: phagocytes; design: method as in PMID 23504664; settings: turpentine oil-induced inflammation, mean ± SD; cited from earlier work
# [1] = test system: turpentine oil-induced inflammation; design: method as in PMID 23504664; Leukocytes (L, leukocytes count):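 lower leukocyte count means stronger anti-inflammatory effect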; settings: mean ± SD; cited from earlier work
# [2] = test system: nitric oxide (NO) synthesis; design: method as in PMID 23504664; unit not given here; settings: turpentine oil-induced inflammation, mean ± SD; cited from earlier work
# oxidative stress = test system: oxidative stress; design: method as in PMID 23504664; settings: turpentine oil-induced inflammation, mean ± SD; cited from earlier work
# [3] = Lipophilicity by reversed-phase thin-layer chromatography (RP-TLC), isopropanol-water mobile phase; format: physicochemical; settings: RP-18F254s TLC, iso-propanol-water 45-65% (v/v); for RM0 (lipophilicity estimation parameter, intercept of RM = RM0 + bC): extrapolated to pure water
# Procedure: Some of the parameters resulting from a RP-TLC may be associated to the lipophilic character of the analytes. The retention parameters (RM) are calculated by means of well-known Batte-Smith and Westall Equation (1): RM = log (1/RF − 1) (1)
# Generally, the RM values determined by RP-TLC are linearly dependent on the concentration of the organic modifier (C) in the mobile phase Equation (2): RM = RM0 + bC (2) where b and RM0 are, respectively, the slope and the intercept of Equation (2). […] Additionally, it has been stated that not only the RM0, but also the slope, b, as a characteristic of the specific hydrophobic surface area of the compounds, can be used as an estimation of lipophilicity. The advantages of TLC methods consist in the small quantity of compounds needed for the determination, and the rapidity and simplicity of the method. Also, they are inexpensive, rapid and easy to perform.
# Chromatography was performed on 20 × 20 cm RP-18F254s TLC precoated silica plates (Merck; Darmstadt, Germany). Solutions (1 mg/mL) of the tested compounds were prepared in iso-propanol, and 3 μL aliquots were spotted in duplicate on the plates by hand, 10 mm from the bottom edge and 20 mm apart. The mobile phases were composed of the iso-propanol-water binary mixtures, with a varying content of organic modifier between 45% and 65% (v/v) in 5% increments, as the study compounds differed considerably in their retention. Chromatography was performed in a normal developing chamber at room temperature, the developing distance being 10 cm. The chromatography chamber was saturated with the mobile phase for 30 min before use. After the development (30–60 min), the plates were air dried at room temperature and examined under a UV lamp (λ = 254 nm), and the RF (retardation factor) values were measured manually by a digital caliper. The experiments were performed in triplicate.
Structure (SMILES),"b (slope of RM = RM0 + bC, specific hydrophobic surface area) [3]","RM0 (lipophilicity estimation parameter, intercept of RM = RM0 + bC) [3]",PA (phagocytic activity) (phagocytes),PI (phagocytosis index) (phagocytes) [%],"Leukocytes (L, leukocytes count) [1]","PMN (polymorphonuclear leukocytes, differential leucocyte count) [1] [%]",NO (nitric oxide synthesis) [2],OSI (oxidative stress index) (oxidative stress),TAR (total antioxidant response) (oxidative stress),TOS (total oxidative status) (oxidative stress)
Cc1nc(-c2ccccc2)sc1C(=O)NNC(=S)Nc1ccccc1 [Th-1],−2.627,1.369,18.5 ± 1.8,21.5 ± 4.6,5587.5 ± 455,60.4 ± 4.1,50.479 ± 5.7,4.66 ± 2.2,1.108 ± 0.003,51.622 ± 6.2
Cc1ccc(-c2nc(C)c(C(=O)NNC(=S)Nc3ccccc3)s2)cc1 [Th-2],−2.853,1.595,22.5 ± 2.8,21.5 ± 2.8,6543 ± 271,60.6 ± 3.1,51.827 ± 6.3,5.76 ± 5.3,1.099 ± 0.003,63.265 ± 5.4
Cc1nc(-c2ccc(Br)cc2)sc1C(=O)NNC(=S)Nc1ccccc1 [Th-3],−2.739,1.600,31 ± 1.8,21.5 ± 0.9,4987 ± 133,63.6 ± 3.9,52.838 ± 8.9,3.62 ± 2.9,1.095 ± 0.003,39.601 ± 7.9
CNC(=S)NNC(=O)c1sc(-c2ccc(C)cc2)nc1C [Th-5],−2.502,1.161,22.5 ± 0.9,19.5 ± 2.3,"11,633.3 ± 154",59.8 ± 3.6,47.024 ± 8.9,4.7 ± 3.1,1.096 ± 0.001,51.557 ± 17.1
C=CCNC(=S)NNC(=O)c1sc(-c2ccc(C)cc2)nc1C [Th-8],−2.685,1.398,21 ± 1.1,21.5 ± 0.9,5718.75 ± 104,66.6 ± 1.0,48.793 ± 5.5,5.03 ± 4.1,1.107 ± 0.002,55.664 ± 4.2

# Further lines, with some results ahead:
"b (slope of RM = RM0 + bC, specific hydrophobic surface area) [3]","RM0 (lipophilicity estimation parameter, intercept of RM = RM0 + bC) [3]",Structure (SMILES),PA (phagocytic activity) (phagocytes),PI (phagocytosis index) (phagocytes) [%],"Leukocytes (L, leukocytes count) [1]","PMN (polymorphonuclear leukocytes, differential leucocyte count) [1] [%]",NO (nitric oxide synthesis) [2],OSI (oxidative stress index) (oxidative stress),TAR (total antioxidant response) (oxidative stress),TOS (total oxidative status) (oxidative stress)
−2.355,0.986,CNC(=S)NNC(=O)c1sc(-c2ccccc2)nc1C [Th-4],29 ± 1.8,22.5 ± 3.5,"12,218.8 ± 1341",82.8 ± 4.1,47.501 ± 2.8,4.49 ± 3.6,1.109 ± 0.006,49.823 ± 3.6
−2.740,1.398,CNC(=S)NNC(=O)c1sc(-c2ccc(Br)cc2)nc1C [Th-6],18 ± 1.5,13 ± 3.2,6056.25 ± 862,70.4 ± 2.9,50.591 ± 9.1,3.93 ± 2.6,1.097 ± 0.006,43.108 ± 5.6
−2.484,1.195,C=CCNC(=S)NNC(=O)c1sc(-c2ccccc2)nc1C [Th-7],53.5 ± 3.5,20.5 ± 0.9,6356.25 ± 66,73.2 ± 4.0,54.355 ± 6.2,3.98 ± 3.8,1.107 ± 0.003,44.073 ± 3.8
−2.630,1.479,Cc1nc(-c2ccccc2)sc1-c1nnc(S)n1-c1ccccc1 [Th-9],20.5 ± 0.9,21 ± 7.0,9000 ± 428,67.4 ± 3.0,65.479 ± 4.8,6.25 ± 5.2,1.101 ± 0.001,68.780 ± 16.2
−2.948,1.754,Cc1ccc(-c2nc(C)c(-c3nnc(S)n3-c3ccccc3)s2)cc1 [Th-10],23 ± 1.1,20.5 ± 0.9,5606.25 ± 154,61.2 ± 3.4,65.142 ± 5.3,4.95 ± 5.4,1.095 ± 0.003,54.164 ± 5.4
−3.133,2.020,Cc1nc(-c2ccc(Br)cc2)sc1-c1nnc(S)n1-c1ccccc1 [Th-11],19.75 ± 2.4,21 ± 1.1,"11,137.5 ± 483",86.4 ± 2.6,66.799 ± 5.9,6.08 ± 4.9,1.092 ± 0.003,66.394 ± 8.9
−2.463,1.305,Cc1nc(-c2ccccc2)sc1-c1nnc(S)n1C [Th-12],20 ± 1.5,22.5 ± 3.5,8456.25 ± 565,78.6 ± 1.0,70.029 ± 6.4,8.27 ± 4.2,1.095 ± 0.004,90.592 ± 4.2
